Measured values taken from patent publication US20210363110A1, “4-METHYLDIHYDROPYRIMIDINONE COMPOUNDS AND PHARMACEUTICAL USE THEREOF” (Japan Tobacco Inc., priority 2018, published 2021).

Tests used:
[1] = test system: IL-17 production in plasmas; assay: IL-17 production in plasmas of cytokine-stimulated normal mice; type: in vivo, C57BL/6J mice; conditions: 0.1 mg/mL suspension, 0.2 mL/head orally, single, 28 hours before IL-1 beta/IL-23 i.v.; blood 2 hours after cytokine
Procedure: Effects of test substances on IL-17 production in plasmas were assessed in normal mice. The assessment was performed according to Non Patent Literature 32. Nine-week old female C57BL/6J mice (Japan Charles River K. K.) were used as a test animal.
A mixed solution prepared by mixing Recombinant Mouse IL-1 beta/IL-1F2 Protein (R&D systems, INC.) and Recombinant Mouse IL-23 Protein (R&D systems, INC.) at a final concentration of 1.5 μg/mL was administered intravenously to all groups at the tail vein at a volume of 200 μL/head. Blood was collected 2 hours after the administration of cytokine solution.
Administration was performed 28 hours before the administration of cytokine solution. 0.5% (w/v) methyl cellulose (MC) and 0.1 mg/mL of a test substance suspended in 0.5% (w/v) MC were administered orally at a single volume of 0.2 mL/head to Vehicle group and a compound-administered group, respectively.
Blood was separated by centrifugation, and then the IL-17 concentration in plasma was measured with Quantikine (Registered trade mark) Mouse IL-17 ELISA Kit (R&D systems, Inc.).
The IL-17 concentration of Vehicle group was deemed to be 100%, and the IL-17 concentration percentage of the compound-administered group to the Vehicle group was calculated from the following equation.
%=a/b×100 a: IL-17 concentration of the compound-administered group b: IL-17 concentration of the Vehicle group

[2] = Metabolic stability in liver microsomes, rat; type: in vitro ADME; conditions: residual ratio of unreacted substance, 0.2 mg/mL microsomes, NADPH generating system
Procedure: (§1) A test solution was prepared by diluting 10 mM DMSO solution of a test substance with acetonitrile by 100 times.
(§2) Human and animal liver microsomes (SEKISUI XENOTECH; Human (H2610), Rat (R1000), Mouse (M1000), Monkey (P2000), Dog (D1000)) were adjusted with potassium phosphate buffer (pH 7.4) to 0.2 mg/mL in the reaction system. Then, 1% of the solution of a test substance prepared was added to the reaction system. Thereto was added an NADPH generating system (prepared according to the method of Non Patent Literature 28), and the metabolic reaction was initiated. At a designated time, 0.1% formic acid-acetonitrile/water (3:1) was added thereto, and the reaction was terminated.
(§3) The sample after termination of the reaction was separated by centrifugation (1400 g, 20 min.), and then the supernatant was measured by LC/MS (UPLC-SQD (waters)) to calculate a residual ratio of unreacted substances.

[3] = Metabolic stability in liver microsomes, monkey; type: in vitro ADME; conditions: residual ratio of unreacted substance, 0.2 mg/mL microsomes, NADPH generating system
Procedure: as §1, §2, §3

[4] = Metabolic stability in hepatocytes, rat; type: in vitro ADME; conditions: residual ratio of unreacted substance, 1×10^6 cells/mL
Procedure: (§4) A test solution was prepared by diluting 10 mM DMSO solution of a test substance with acetonitrile by 20 times.
(§5) Human and animal cryopreserved hepatocyte (BIOIVT; Human (IVT-X008000), Rat (IVT-M00005), Monkey (IVT-M00305), Dog (IVT-M00205)) were adjusted with William's Medium E (SIGMA; W1878) to 1×10^6 cells/mL of a cell suspension, which was then added to a 96-well plate. Then, 1% of the solution of a test substance prepared was added to the reaction system, and the metabolic reaction was initiated. At a designated time, 0.1% formic acid-acetonitrile was added thereto, and the reaction was terminated.
as §3

[5] = Metabolic stability in liver microsomes, mouse; type: in vitro ADME; conditions: residual ratio of unreacted substance, 0.2 mg/mL microsomes, NADPH generating system
Procedure: as §1, §2, §3

[6] = Metabolic stability in liver microsomes, dog; type: in vitro ADME; conditions: residual ratio of unreacted substance, 0.2 mg/mL microsomes, NADPH generating system
Procedure: as §1, §2, §3

[7] = Metabolic stability in hepatocytes, human; type: in vitro ADME; conditions: residual ratio of unreacted substance, 1×10^6 cells/mL
Procedure: as §4, §5, §3

Row | Metabolic stability in liver microsomes at 60 min., Rat [2] [%] | Metabolic stability in liver microsomes at 60 min., Monkey [3] [%] | Metabolic stability in hepatocytes at 240 min., Rat [4] [%] | Metabolic stability in liver microsomes at 60 min., Mouse [5] [%] | Metabolic stability in liver microsomes at 60 min., Dog [6] [%] | Metabolic stability in hepatocytes at 240 min., Human [7] [%] | Compound | IL-17 concentration (%) relative to Vehicle group [1] [%]
1 | 103 | 93 | 90 | 95 | 98 | 94 | CC(C)C1=CN(C23CC(C(=O)O)(C2)C3)C(=O)N[C@@]1(C)c1ccc([C@@H]2C[C@H]2C(C)(C)C)c(Cl)c1 [Compound (1), 3-{(S)-4-[4-((1R,2R)-2-tert-Butyl-cyclopropyl)-3-chloro-phenyl]-5-isopropyl-4-methyl-2-oxo-3,4-dihydro-2H-pyrimidin-1-yl}bicyclo[1.1.1]pentane-1-carboxylic acid] | 52
2 | 95 | 96 | 94 | 98 | 95 | 94 | CC[C@H](C)C1=CN(C23CC(C(=O)O)(C2)C3)C(=O)N[C@@]1(C)c1ccc([C@@H]2C[C@H]2C(C)(C)C)c(Cl)c1 [Compound (2), 3-{(S)-5-((S)-sec-Butyl)-4-[4-((1R,2R)-2-tert-butyl-cyclopropyl)-3-chloro-phenyl]-4-methyl-2-oxo-3,4-dihydro-2H-pyrimidin-1-yl}bicyclo[1.1.1]pentane-1-carboxylic acid] | 67
